From patent publication US10479794B2, “Cyclic ether derivatives of pyrazolo[1,5-a]pyrimidine-3-carboxyamide” (Boehringer Ingelheim International GmbH, priority 2015, dated 2019)

Tested on: human MDR1 P-gp
Test: Assessment of efflux in MDCK cells transfected with the human MDR1 gene (MDCK assay)
Format: in vitro ADME, canine
Settings: dog; for Papp A→B at 2 h: MDCK-MDR1, pH 7.4, MDCK-MDR1 monolayers, apical-to-basal, pH 7.4, 37° C.; for efflux ratio at 2 h: MDCK-MDR1, pH 7.4, MDCK-MDR1, Papp (b-a) divided by Papp (a-b)
Protocol: Assessment of Efflux in Madin-Darby Canine Kidney Cells Transfected with the Human MDR1 Gene (MDCK Assay)
Apparent permeability coefficients (PE) of the compounds across the MDCK-MDR1 cell monolayers are measured (pH 7.4, 37° C.) in apical-to-basal (AB) and basal-to-apical (BA) transport direction. AB permeability (PEAB) represents drug absorption from the blood into the brain and BA permeability (PEBA) drug efflux from the brain back into the blood via both passive permeability as well as active transport mechanisms mediated by efflux and uptake transporters that are expressed on the MDCK-MDR1 cells, predominantly by the overexpressed human MDR1 P-gp. The compounds are assigned to permeability/absorption classes by comparison of the AB permeabilities with the AB permeabilities of reference compounds with known in vitro permeability and oral absorption in the human. Identical or similar permeabilities in both transport directions indicate passive permeation, vectorial permeability points to additional active transport mechanisms. Higher PEBA than PEAB indicates the involvement of active efflux mediated by MDR1 P-gp. Active transport is concentration-dependently saturable.
MDCK-MDR1 cells (1-2×10e5 cells/1 cm2 area) are seeded on filter inserts (Costar transwell polycarbonate or PET filters, 0.4 μm pore size) and cultured (DMEM) for 7 days. Subsequently, the MDR1 expression is boosted by culturing the cells with 5 mM sodium butyrate in full medium for 2 days. Compounds are dissolved in appropriate solvent (like DMSO, 1-20 mM stock solutions). […] The transport solution (TL) is applied to the apical or basolateral donor side for measuring A-B or B-A permeability (3 filter replicates), respectively. The receiver side contains the same buffer as the donor side. Samples are collected at the start and end of experiment from the donor and at various time intervals for up to 2 hours also from the receiver side for concentration measurement by HPLC-MS/MS or scintillation counting. Sampled receiver volumes are replaced with fresh receiver solution. Efflux ratio is calculated dividing the Papp (b-a) values by the Papp (a-b) values.

Papp A→B at 2 h | efflux ratio at 2 h | SMILES
60 ×10⁻⁶ cm/s |  | Cc1cnc2c(C(=O)NC3(c4ccc(C(F)(F)F)cc4F)CCOCC3O)cnn2c1 (single isomer, unassigned) [Example 81a]
59 ×10⁻⁶ cm/s | 1 | O=C(NC1(c2ccc(C(F)(F)F)cc2F)CCOCC1O)c1cnn2cc(C3CC3)cnc12 (single isomer, unassigned) [Example 82a]
60 ×10⁻⁶ cm/s |  | Cc1cnc2c(C(=O)NC3(c4ccc(C(F)(F)F)cc4F)CCOCC3O)cnn2c1 (racemic) [Example 46]
15 ×10⁻⁶ cm/s |  | CC1(O)COCCC1(NC(=O)c1cnn2cc(C3CC3)cnc12)c1ccc(C(F)(F)F)cc1F (racemic) [Example 53]
84 ×10⁻⁶ cm/s | 0.6 | Cc1cnc2c(C(=O)NC3(c4ccc(C(F)(F)F)cc4F)CCOCC3)cnn2c1 [Example 2]
25 ×10⁻⁶ cm/s | 1.3 | O=C(NC1(c2ccc(C(F)(F)F)cc2F)COCC1O)c1cnn2cc(C3CC3)cnc12 (single isomer, unassigned) [Example 69]
97 ×10⁻⁶ cm/s | 0.7 | O=C(NC1(c2ccc(C(F)(F)F)cc2F)CCOCC1)c1cnn2cc(F)cnc12 [Example 3]
100 ×10⁻⁶ cm/s | 0.8 | Cc1nn2cc(C3CC3)cnc2c1C(=O)NC1(c2ccc(C(F)(F)F)nc2)CCOCC1 [Example 25]
34 ×10⁻⁶ cm/s |  | Cc1cnc2c(C(=O)NC3(c4ccc(C(F)(F)F)cc4F)CCOCC3(C)O)cnn2c1 (single isomer, unassigned) [Example 83a]
94 ×10⁻⁶ cm/s | 0.6 | Cc1nn2cc(C3CC3)cnc2c1C(=O)NC1(c2ccc(C(F)(F)F)cn2)CCOCC1 [Example 21]
86 ×10⁻⁶ cm/s | 0.5 | O=C(NC1(c2ccc(C(F)(F)F)cc2)CCOC1)c1cnn2cc(C3CC3)cnc12 (racemic) [Example 37]
85 ×10⁻⁶ cm/s | 0.6 | Cc1nn2cc(C3CC3)cnc2c1C(=O)NC1(c2ncc(C(F)(F)F)cc2F)CCOCC1 [Example 17]
11 ×10⁻⁶ cm/s |  | Cc1nn2cc(C3CC3)cnc2c1C(=O)NC1(c2ccc(C(F)(F)F)nc2)CCOCC1O (racemic) [Example 51]
